# Entries after “also recorded” stand apart in the source; their conditions may differ.
# Experiments:
# Glo1 in JIMT-1 cells [1] = experiment: Glo1 protein content by Western blot; assay type: cell-based, human; conditions: JIMT-1, 24 h
# Procedure: Cells were harvested and the specific activity of Glo1 and LDH was determined in the cytosolic extract. (B) Semi-quantitative analysis of protein content as performed by Western blot using specific antibodies against β-actin and Glo1. The blot was developed by chemoluminescense detection. […] Data represent the mean±S.D. of independent experiments (n = 6).
# An amount of 20 µg to 40 µg of cytosolic extract was loaded to SDS-pore gradient gels (4 to 20%) and run under reducing conditions. Proteins were blotted to cellulose nitrate membranes (Whatman Schleicher & Schuell, Dassel, Germany) and Glo1 was detected by anti-Glo1 monoclonal antibodies (1 µg/ml) (BioMac, Leipzig, Germany) in combination with goat anti-mouse Ig-HRP (1∶1000) (Dako, Hamburg, Germany). For comparison, β-actin was analyzed using rabbit anti-β-actin Ig (1∶2000) (Acris, Hiddenhausen, Germany) in conjunction with HRP-labeled goat anti-rabbit Ig (Dianova, Hamburg, Germany). Band visualization was performed by chemiluminescence detection (Boehringer, Mannheim, Germany).
# [2] = system: primary human hepatocytes; experiment: Vitality of primary human hepatocytes (WST-1); assay type: cell-based; conditions: 24-h incubation, increasing concentrations
# Procedure: Apoptosis/necrosis was evaluated using annexin V-5-fluorescein isothiocyanate (FITC)/propidium iodine (PI) staining followed by flow cytometric analysis. […] The proportion of dead cells (a: annexin V-FITC^−/PI^+), late apoptotic/necrotic cells (b: annexin V-FITC^+/PI^+), non-apoptotic cells (c: annexin V-FITC^−/PI^−) and early apoptotic cells (d: annexin V-FITC^+/PI^−). (B) Results of 3 independent experiments. […] Data represent the mean±S.D. of three independent experiments.
# Primary human hepatocytes were isolated and cultivated in serum-free William Medium E [59]. Tissue samples from human liver resection were obtained from patients undergoing partial hepatectomy for metastatic liver tumor of colorectal cancer. Experimental procedures were performed according to the guidelines of the charitable state controlled foundation (Human Tissue and Cell Research), with the informed patient's consent approved by the local ethical committee.
# Cell proliferation/vitality of tumor cells (96-well plates; 5000 cells/well) and primary human hepatocytes (24-well plates; 0.25×10^6 cells/well) was assayed using the WST-1 assay according to manufacturer's instructions. Trypan blue exclusion was performed by staining cells with 0.4% aqueous trypan blue solution according to the manufacturer's instructions.
# Glo1 in JIMT-1 cells [3] = system: T1, Glo1 in JIMT-1 cells; experiment: Specific Glo1 activity in cytosolic extract of treated cells; assay type: cell-based, human; conditions: JIMT-1, 24 h
# T1 construct: endogenous in cells; host or cells: JIMT-1 breast carcinoma cells (ACC 589; DSMZ)
# Procedure: Cells were harvested and the specific activity of Glo1 and LDH was determined in the cytosolic extract. (B) Semi-quantitative analysis of protein content as performed by Western blot using specific antibodies against β-actin and Glo1. The blot was developed by chemoluminescense detection. […] Data represent the mean±S.D. of independent experiments (n = 6). Tumor cells were cultured in RPMI medium containing 10% fetal calf serum (RPMI-FCS) (PC-3, JIMT-1, MDA-MD 231) or in DMEM-FCS (astrocytoma 1321N1 cells) containing penicillin/streptomycin (100 U penicillin/ml; 100 µg streptomycin/ml) at 37°C/5% CO2. Cytosolic protein extracts of tumor cells were prepared using extraction buffer composed of 25 mM Tris, 2 mM EDTA, 10% Glycerol, 1% Triton ×100, 2 mM DTT, 1mM PMSF, pH. 7.0 containing 0.3% protease inhibitor cocktail. Protein content was determined according to Bradford. Specific activity of enzymes analyzed in cell extracts was expressed as U/mg protein. […] The inhibition constant, Ki value of the inhibitors was evaluated by Dixon plot showing the reciprocal of enzyme velocity against the inhibitor concentration at variable concentrations of the substrate. Human Glo2 (E.C.3.1.2.6) was measured using the substrate S-lactoylglutathione as described earlier.
# astrocytoma 1321N1 cells = experiment: Cellular ATP content (CellTiter-Glo), 1321N1; assay type: cell-based; conditions: 1321N1, 6 h; curcumin 0–100 µM, MGO 0–1000 µM
# Procedure: Cellular ATP content was determined using the CellTiter-Glo® Luminescent Cell Viability Assay. Data represent the mean±S.D. of independent experiments (n = 12).
# Cell ATP content was determined by means of the CellTiter-Glo® Luminescent Cell Viability Assay according to the manufacturer's instructions (Promega, Madison, USA). […] After 6-h incubation, cells were mixed with test reagents and luminescence was read according to the manufacturer's instructions. A standard curve was prepared from ATP (1 µM to 10 nM) in medium.
# glyoxalase 1 (Glo1) = molecular target: T2, glyoxalase 1 (Glo1) (Homo sapiens, UniProt Q04760); experiment: Inhibition of purified glyoxalase 1 activity (Dixon plot); assay type: biochemical; conditions: Dixon plot / model fit
# T2 construct: Glo1 was purified from human erythrocytes as described earlier; from tissue; host or cells: human erythrocytes
# T2 sequence (Q04760 2-184 limits assumed): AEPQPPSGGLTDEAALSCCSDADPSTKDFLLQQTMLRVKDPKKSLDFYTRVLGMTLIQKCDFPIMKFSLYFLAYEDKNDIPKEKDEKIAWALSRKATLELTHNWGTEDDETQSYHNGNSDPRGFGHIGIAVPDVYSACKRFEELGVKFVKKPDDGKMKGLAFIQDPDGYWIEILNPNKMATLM
# Procedure: Purified Glo1 (70 mU) was incubated with increasing concentrations of different polyphenols at three substrate concentrations; and enzyme activity was recorded (n = 3). The inhibitor concentration was plotted vs. the reciprocal of enzyme activity (1/v) in Dixon plots.
# Glo1 was purified from human erythrocytes as described earlier. Briefly, erythrocytes were treated with butanol/chloroform to denature hemoglobin followed by acetone and ammonium sulphate fractionation.
# The determination of Glo1 (E.C.4.4.1.5) activity has been described previously. […] The inhibition constant, Ki value of the inhibitors was evaluated by Dixon plot showing the reciprocal of enzyme velocity against the inhibitor concentration at variable concentrations of the substrate. Human Glo2 (E.C.3.1.2.6) was measured using the substrate S-lactoylglutathione as described earlier.
# A goodness-of-fit criterion (Akaike's information criterion, AIC) was used for falsification of incompatible inhibition models. […] Spearman's rank correlation test was applied to evaluate the correlation between the IC50 values of pro-inflammatory cytokine release and the Ki-values of various polyphenols. Data were presented as means±S.D. of at least three independent experiments. […] In all other tests, significance has been considered at values of p<0.05.
# 1321N1 cells = experiment: L-LDH release into cell supernatants; assay type: cell-based; conditions: 50 µM
# Procedure: Tumor cells were cultured and treated as mentioned in Fig. 3. (A) LDH activity was measured in cell supernatants. (B) Cell vitality as assayed by the trypan blue exclusion test. Data represent the mean±S.D. of independent experiments (n = 6).
# LDH activity was spectrophotometrically assayed in the cytosolic extract or in the of cell cultures by adding aliquots to 1 ml reaction buffer (50 mM Na2HPO4, pH 7.0, 0.15 mM NADH, and 0.3 mM pyruvate). Enzyme activity was recorded at 340 nm.
compound,measurement,setting,value
"COc1cc(C=CC(=O)CC(=O)C=Cc2ccc(O)c(OC)c2)ccc1O [curcumin, 1,7-bis(4-hydroxy-3-methoxyphenyl)-1,6-heptadiene-3,5-dione]",Glo1 protein content (Western blot),Glo1 in JIMT-1 cells [1],no alteration
same,cell vitality of primary human hepatocytes,[2],no effect; also recorded: not affected
same,specific Glo1 activity in treated cells,Glo1 in JIMT-1 cells [3],decreased dose-dependently
same,cellular ATP content,astrocytoma 1321N1 cells,decreased cellular ATP in a concentration-dependent manner
same,mode of enzyme inhibition,glyoxalase 1 (Glo1),competitive
same,L-LDH release,1321N1 cells; 6-h incubation,not significantly increased
same,LDH release,1321N1 cells; 24-h incubation,increased
